This note sets out measurements from PubChem BioAssay AID256 (DTP/NCI, 2004).

The structures appear in SMILES notation. Values joined by “and” are separate entries in the source; they are usually repeats but may differ in a detail not shown here. Equal entries are not always repeated. Toxic doses and inconclusive results are not listed.

In this assay the test system is CD2F1 mice, L1210 leukemia ip, survival T/C. The assay can be described thus: NCI In Vivo Anticancer Drug Screen. Data for tumor model L1210 Leukemia (intraperitoneal) in CD2F1 (CDF1) mice. The conditions noted are these: higher = longer survival. The method, boiled down: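 Compound-dosed mice with transplantable tumor versus matched vehicle controls; endpoint ratio T/C reported.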

The mark [1] stands for this setting: endpoint: mean survival time, dose: 100.0 mg/kg/injection, schedule: Q01DX009 (ip), vehicle: saline with Tween-80.
Setting [2] is: endpoint: mean survival time, dose: 200.0 mg/kg/injection, schedule: Q01DX009 (ip), vehicle: saline with Tween-80.
[3] abbreviates: endpoint: mean survival time, dose: 400.0 mg/kg/injection, schedule: Q01DX009 (ip), vehicle: saline with Tween-80.
The mark [4] stands for this setting: endpoint: mean survival time, dose: 100.0 mg/kg/injection, schedule: Q04DX003 (ip), vehicle: saline with Tween-80.
Setting [5] is: endpoint: mean survival time, dose: 200.0 mg/kg/injection, schedule: Q04DX003 (ip), vehicle: saline with Tween-80.
Where [6] appears, read: endpoint: mean survival time, dose: 400.0 mg/kg/injection, schedule: Q04DX003 (ip), vehicle: saline with Tween-80.
The mark [7] stands for this setting: endpoint: mean survival time, dose: 12.5 mg/kg/injection, schedule: Q04DX003 (ip), vehicle: saline with Tween-80.
Setting [8] is: endpoint: mean survival time, dose: 25.0 mg/kg/injection, schedule: Q04DX003 (ip), vehicle: saline with Tween-80.
[9] abbreviates: endpoint: mean survival time, dose: 50.0 mg/kg/injection, schedule: Q04DX003 (ip), vehicle: saline with Tween-80.
Where [10] appears, read: endpoint: mean survival time, dose: 25.0 mg/kg/injection, schedule: Q01DX009 (ip), vehicle: saline with Tween-80.
The mark [11] stands for this setting: endpoint: mean survival time, dose: 50.0 mg/kg/injection, schedule: Q01DX009 (ip), vehicle: saline with Tween-80.
Setting [12] is: endpoint: mean survival time, dose: 100.0 mg/kg/injection, schedule: Q04DX002 (ip), vehicle: saline with Tween-80.
Where [13] appears, read: endpoint: mean survival time, dose: 200.0 mg/kg/injection, schedule: Q04DX002 (ip), vehicle: saline with Tween-80.

On to `CN[C@H]1CCc2cc(OC)c(OC)c(OC)c2-c2ccc(OC)c(=O)cc21`, for which the T/C was 113 % of control and 105 % of control (endpoint: mean survival time, dose: 0.63 mg/kg/injection, schedule: Q01DX009 (ip), vehicle: saline); 97 % of control and 101 % of control (endpoint: mean survival time, dose: 0.63 mg/kg/injection, schedule: Q01DX009 (ip), vehicle: water); 113 % of control and 116 % of control (endpoint: mean survival time, dose: 1.25 mg/kg/injection, schedule: Q01DX009 (ip), vehicle: saline); 118 % of control and 108 % of control (endpoint: mean survival time, dose: 1.25 mg/kg/injection, schedule: Q01DX009 (ip), vehicle: water); 121 % of control (endpoint: mean survival time, dose: 2.5 mg/kg/injection, schedule: Q01DX007 (ip), vehicle: saline); 121 % of control and 123 % of control and 124 % of control (endpoint: mean survival time, dose: 2.5 mg/kg/injection, schedule: Q01DX009 (ip), vehicle: saline). Further, the T/C runs as follows: (endpoint: mean survival time, dose: 2.5 mg/kg/injection, schedule: Q01DX009 (ip), vehicle: water) 116 % of control and 107 % of control; (endpoint: mean survival time, dose: 2.5 mg/kg/injection, schedule: Q03DX003 (ip), vehicle: saline) 102 % of control; (endpoint: mean survival time, dose: 2.5 mg/kg/injection, schedule: Q04DX003 (ip), vehicle: saline) 95 % of control; (endpoint: mean survival time, dose: 5.0 mg/kg/injection, schedule: Q01DX007 (ip), vehicle: saline) 122 % of control; (endpoint: mean survival time, dose: 5.0 mg/kg/injection, schedule: Q01DX009 (ip), vehicle: saline) 120 % of control; (endpoint: mean survival time, dose: 5.0 mg/kg/injection, schedule: Q01DX009 (ip), vehicle: water) 118 % of control. Further, the T/C is 115 % of control (endpoint: mean survival time, dose: 5.0 mg/kg/injection, schedule: Q03DX003 (ip), vehicle: saline); 105 % of control (endpoint: mean survival time, dose: 5.0 mg/kg/injection, schedule: Q04DX003 (ip), vehicle: saline); 124 % of control and 108 % of control (endpoint: mean survival time, dose: 10.0 mg/kg/injection, schedule: Q01DX009 (ip), vehicle: water); 101 % of control (endpoint: mean survival time, dose: 10.0 mg/kg/injection, schedule: Q04DX003 (ip), vehicle: saline); 114 % of control and 100 % of control (endpoint: median survival time, dose: 0.63 mg/kg/injection, schedule: Q01DX009 (ip), vehicle: saline); 114 % of control and 100 % of control (endpoint: median survival time, dose: 1.25 mg/kg/injection, schedule: Q01DX009 (ip), vehicle: saline). Besides, the T/C was 121 % of control and 111 % of control (endpoint: median survival time, dose: 2.5 mg/kg/injection, schedule: Q01DX009 (ip), vehicle: saline); 150 % of control (endpoint: median survival time, dose: 5.0 mg/kg/injection, schedule: Q01DX009 (ip), vehicle: saline).

For the compound `COC(=O)C1CC23C=CCN4CC(C2C)C2(c5ccccc5NC12)C43` (stereo not given), the T/C is 102 % of control (endpoint: mean survival time, dose: 8.0 mg/kg/injection, schedule: Q01DX001 (ip), vehicle: saline); 96 % of control (endpoint: mean survival time, dose: 16.0 mg/kg/injection, schedule: Q01DX001 (ip), vehicle: saline); 102 % of control (endpoint: mean survival time, dose: 32.0 mg/kg/injection, schedule: Q01DX001 (ip), vehicle: saline); 101 % of control (endpoint: mean survival time, dose: 64.0 mg/kg/injection, schedule: Q01DX001 (ip), vehicle: saline).

As to `O=C(CCCCC(=O)N/N=C/c1ccco1)N/N=C/c1ccco1`, the T/C is 92 % of control under setting [1], 88 % of control under setting [2] and 93 % of control under setting [3].

For the compound `CC(=O)Nc1ccc(Br)c(NC(C)=O)n1`, the T/C under setting [4] is 95 % of control, the T/C under setting [5] is 98 % of control and the T/C under setting [6] is 104 % of control.

As for `CCC1=NNC(=O)C1(Br)Br`, the T/C is, setting by setting: under setting [7], 100 % of control; under setting [8], 102 % of control; under setting [9], 105 % of control.

Regarding `NC(CO)C(O)c1ccc(N=Nc2ccc(O)cc2)cc1` (stereo not given), the T/C under setting [10] was 100 % of control, the T/C under setting [11] was 104 % of control and the T/C under setting [1] is 94 % of control.

Take `CCOC(=O)N1C(=O)C2C3CCC(O3)C2C1=O` (stereo not given): the T/C is 104 % of control (endpoint: mean survival time, dose: 25.0 mg/kg/injection, schedule: Q04DX002 (ip), vehicle: saline with Tween-80); 90 % of control (endpoint: mean survival time, dose: 50.0 mg/kg/injection, schedule: Q04DX002 (ip), vehicle: saline with Tween-80); 109 % of control under setting [12].

With `CC1(C)N=C(N)N=C(N)N1c1cccc(C#N)c1`, the T/C is, setting by setting: (endpoint: mean survival time, dose: 17.0 mg/kg/injection, schedule: Q01DX009 (ip), vehicle: saline) 112 % of control; (endpoint: mean survival time, dose: 25.0 mg/kg/injection, schedule: Q01DX009 (ip), vehicle: saline) 117 % of control; (endpoint: mean survival time, dose: 37.5 mg/kg/injection, schedule: Q01DX009 (ip), vehicle: saline) 120 % of control; (endpoint: mean survival time, dose: 75.0 mg/kg/injection, schedule: Q01DX001 (ip), vehicle: saline) 104 % of control; (endpoint: mean survival time, dose: 150.0 mg/kg/injection, schedule: Q01DX001 (ip), vehicle: saline) 113 % of control.

For `CCCCCCCCN(c1ccc(C(=O)NC(CCC(=O)OCC)C(=O)OCC)cc1)S(=O)(=O)c1ccc(C)cc1` (stereo not given), the T/C is 94 % of control under setting [7]; 100 % of control under setting [8]; 102 % of control under setting [9]; 86 % of control under setting [4]; 86 % of control under setting [5]; 87 % of control under setting [6].

Take `CC1=Nc2cc(C)c(C)cc2N2C1=CC1=C(C(=O)c3cc4ccccc4cc3C1=O)C2C` (stereo not given): the T/C reads like this: under setting [8], 97 % of control; under setting [9], 108 % of control; (endpoint: mean survival time, dose: 100.0 mg/kg/injection, schedule: Q04DX003 (ip), vehicle: saline) 110 % of control; (endpoint: mean survival time, dose: 200.0 mg/kg/injection, schedule: Q04DX003 (ip), vehicle: saline) 107 % of control.

In the case of `O=C(O)c1cc(=O)c2ccccc2[nH]1`, the T/C runs as follows: (endpoint: mean survival time, dose: 50.0 mg/kg/injection, schedule: Q01DX001 (ip), vehicle: saline) 93 % of control; (endpoint: mean survival time, dose: 100.0 mg/kg/injection, schedule: Q01DX001 (ip), vehicle: saline) 93 % of control; (endpoint: mean survival time, dose: 200.0 mg/kg/injection, schedule: Q01DX001 (ip), vehicle: saline) 91 % of control.

Consider `COc1ccc2c(c1)CCC1C2=CC2=NNC(=O)C2C1c1ccccc1` (stereo not given), for which the T/C was 92 % of control under setting [12]; 92 % of control under setting [13]; 88 % of control (endpoint: mean survival time, dose: 400.0 mg/kg/injection, schedule: Q04DX002 (ip), vehicle: saline with Tween-80).

Regarding `O=C(O)COc1cc(Cl)c(Cl)cc1Cl` (tested in a mixture with another compound), the T/C by setting is: under setting [12], 96 % of control; under setting [13], 114 % of control.

As for `O=C1/C(=C/c2ccccc2[N+](=O)[O-])CCc2ccccc21`, the T/C is, setting by setting: (endpoint: mean survival time, dose: 100.0 mg/kg/injection, schedule: Q01DX009 (ip), vehicle: Klucel (hydroxypropylcellulose) (HPC)) 97 % of control; (endpoint: mean survival time, dose: 200.0 mg/kg/injection, schedule: Q01DX009 (ip), vehicle: Klucel (hydroxypropylcellulose) (HPC)) 91 % of control; (endpoint: mean survival time, dose: 400.0 mg/kg/injection, schedule: Q01DX009 (ip), vehicle: Klucel (hydroxypropylcellulose) (HPC)) 96 % of control.

As for `COC(=O)c1cc(N(CCCl)CCCl)ccc1N=Nc1ccc([N+](=O)[O-])cc1`, the T/C by setting is: (endpoint: mean survival time, dose: 100.0 mg/kg/injection, schedule: Q04DX003 (ip), vehicle: Klucel (hydroxypropylcellulose) (HPC)) 109 % of control; (endpoint: mean survival time, dose: 200.0 mg/kg/injection, schedule: Q04DX003 (ip), vehicle: Klucel (hydroxypropylcellulose) (HPC)) 115 % of control; (endpoint: mean survival time, dose: 400.0 mg/kg/injection, schedule: Q04DX003 (ip), vehicle: Klucel (hydroxypropylcellulose) (HPC)) 117 % of control.

Take `CCOc1ccc(N=[N+]([O-])c2ccc(OCC)cc2)cc1`: the T/C is 90 % of control under setting [1]; 96 % of control under setting [4]; 97 % of control under setting [2]; 98 % of control under setting [5]; 96 % of control under setting [3]; 101 % of control under setting [6].

Consider `CCOC(=O)c1ccc(Nc2nnc(-c3c(OC)cc(OC)cc3OC)s2)cc1`, for which the T/C under setting [10] was 88 % of control; the T/C under setting [11] is 88 % of control; the T/C under setting [1] was 89 % of control; the T/C under setting [2] was 88 % of control; the T/C under setting [3] is 88 % of control.

Consider `Cc1cc(C)c(C(=O)CC(C#N)c2ccccc2)c(C)c1` (stereo not given), for which the T/C under setting [4] was 95 % of control, the T/C under setting [5] is 98 % of control and the T/C under setting [6] is 91 % of control.

As for `CCOC(CS(=O)(=O)CC(N)=O)OCC`, the T/C is 98 % of control under setting [4], 93 % of control under setting [5] and 104 % of control under setting [6].
